Measured values reported in publication PMC6696315, “Inhibiting Acetylcholinesterase to Activate Pleiotropic Prodrugs with Therapeutic Interest in Alzheimer’s Disease” (Molecules, 2019).
Where “and” joins values, the source holds several entries; their conditions need not be identical. Equal entries are not always repeated. Entries after “also recorded” stand apart in the source; their conditions may differ. Structures can show the parent of a compound that is named as a salt.

Tests used:
mice = assay: CNS-activity and acute toxicity test; conditions: mice, IP
Description: Animals. Adult male NMRI mice (3 months old, weighing 35–40 g) from Janvier labs (Le Genest-Saint-Isle, France) were used to perform experiments. Mice were housed by ten in standard polycarbonate cages in standard controlled conditions (22 ± 2 °C, 55 ± 10% humidity) with a reversed 12 h light/dark cycle (light on at 7 pm). Food and water were available ad libitum in the home cage. All experiments were conducted (between 9 am and 3 pm) during the active–dark phase of the cycle and were in agreement with the European Directives and French law on animal experimentation (personal authorization n° 14–17 for MB and 14–60 for TF).
CNS-activity and acute toxicity test. Behavioral and neurological changes induced by graded doses (1, 10, 100 mg/kg) of the tested derivatives were evaluated in mice, in groups of four, by a standardized observation technique at different times (30 min, 3 and 24 h) after intraperitoneal administration. […] The approximate DL50 of the compounds were also calculated through the quantification of mortality after 24 h. Amphetamine (2 mg/kg) and chlorpromazine (10 mg/kg) were used as the stimulant and depressive references, respectively.

rodents [1] = conditions: various tests; cited from earlier work
rodents [2] = conditions: cited from earlier work
human 5-HT4R [3] = target: T1, human 5-HT4R (Homo sapiens, UniProt Q13639); assay: 5-HT4R radioligand displacement assay ([3H]-GR113808); format: binding; conditions: mean ± SEM of at least three experiments
T1 construct: purchased Eurofins HTS110M
T1 sequence (Q13639 whole entry): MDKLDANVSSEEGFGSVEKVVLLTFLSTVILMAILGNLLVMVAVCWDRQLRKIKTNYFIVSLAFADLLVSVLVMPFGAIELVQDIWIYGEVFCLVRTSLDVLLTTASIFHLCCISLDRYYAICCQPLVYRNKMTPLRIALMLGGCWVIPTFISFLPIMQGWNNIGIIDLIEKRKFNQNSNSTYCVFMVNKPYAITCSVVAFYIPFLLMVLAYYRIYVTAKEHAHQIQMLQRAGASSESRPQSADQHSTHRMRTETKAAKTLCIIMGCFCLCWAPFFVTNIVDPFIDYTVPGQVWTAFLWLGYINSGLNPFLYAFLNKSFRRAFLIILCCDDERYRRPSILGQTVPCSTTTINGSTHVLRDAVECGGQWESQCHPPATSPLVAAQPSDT

AChE [4] = target: T2, AChE (Homo sapiens, UniProt P22303); assay: AChE inhibition, Ellman assay; format: biochemical; parameters: AChE from human erythrocytes; purchased Sigma Aldrich; host or cells: human erythrocytes (natural source); conditions: for inhibition at 1 µM: read-out: (h)AChE % Inhibition at 10^−6 M; for AChE inhibitory activity: result in words
T2 sequence (P22303 32-617 isoform P22303-2 limits assumed): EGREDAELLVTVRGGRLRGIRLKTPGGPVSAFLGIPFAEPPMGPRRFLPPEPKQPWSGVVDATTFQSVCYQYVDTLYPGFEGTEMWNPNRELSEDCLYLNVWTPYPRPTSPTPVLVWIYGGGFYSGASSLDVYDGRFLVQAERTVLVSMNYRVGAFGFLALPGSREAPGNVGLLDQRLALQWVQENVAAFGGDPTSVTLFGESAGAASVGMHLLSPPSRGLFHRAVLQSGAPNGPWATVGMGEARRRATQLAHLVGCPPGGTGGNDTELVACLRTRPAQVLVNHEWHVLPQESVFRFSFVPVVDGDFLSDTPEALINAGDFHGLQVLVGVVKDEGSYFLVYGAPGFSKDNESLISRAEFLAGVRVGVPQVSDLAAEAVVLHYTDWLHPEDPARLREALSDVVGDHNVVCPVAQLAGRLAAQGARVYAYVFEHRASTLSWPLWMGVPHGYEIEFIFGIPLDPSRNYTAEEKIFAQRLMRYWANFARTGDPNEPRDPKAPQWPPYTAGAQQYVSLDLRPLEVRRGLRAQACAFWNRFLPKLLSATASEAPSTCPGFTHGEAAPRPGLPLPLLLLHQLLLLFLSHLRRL
Description: All the synthesized phenolic derivatives and their carbamates were evaluated as potential inhibitors of human AChE, using the Ellman assay, as well as potential ligands for human 5-HT4R using a radioligand displacement assay.
The inhibitory capacity of compounds on AChE biological activity was evaluated through the use of the spectrometric method of Ellman. Acetylthiocholine iodide and 5,5-dithiobis-(2-nitrobenzoic) acid (DTNB) were purchased from Sigma Aldrich. AChE from human erythrocytes (buffered aqueous solution, ≥500 units/mg protein (BCA), Sigma Aldrich, St. Louis, MO, USA) was diluted in 20 mM HEPES buffer pH 8, 0.1% Triton X-100 such as to have enzyme solution with 0.25 unit/mL enzyme activity. In the procedure, 100 μL of 0.3 mM DTNB dissolved in a phosphate buffer with pH 7.4 were added into the 96-well plates followed by 50 μL of the test compound solution and 50 μL of enzyme (0.05 U final). After 5 min of preincubation at 25 °C, the reaction was then initiated by the injection of 50 μL of 10 mM acetylthiocholine iodide solution. […] Assays were performed with a blank containing all components except acetylthiocholine, in order to account for non-enzymatic reactions. The reaction slopes were compared and the percent inhibition due to the presence of test compounds was calculated by the following expression: 100 − (vi/v0 × 100), where vi is the rate calculated in the presence of inhibitor and v0 is the enzyme activity.

(h)5-HT4(a) receptors = target: T3, (h)5-HT4(a) receptors (Homo sapiens, UniProt Q13639); assay: cAMP production in COS-7 cells transfected with 5-HT4R; format: cell-based
T3 construct: HA; expressed in transfected cells; host or cells: COS-7
T3 sequence (Q13639 1-387 isoform Q13639-2): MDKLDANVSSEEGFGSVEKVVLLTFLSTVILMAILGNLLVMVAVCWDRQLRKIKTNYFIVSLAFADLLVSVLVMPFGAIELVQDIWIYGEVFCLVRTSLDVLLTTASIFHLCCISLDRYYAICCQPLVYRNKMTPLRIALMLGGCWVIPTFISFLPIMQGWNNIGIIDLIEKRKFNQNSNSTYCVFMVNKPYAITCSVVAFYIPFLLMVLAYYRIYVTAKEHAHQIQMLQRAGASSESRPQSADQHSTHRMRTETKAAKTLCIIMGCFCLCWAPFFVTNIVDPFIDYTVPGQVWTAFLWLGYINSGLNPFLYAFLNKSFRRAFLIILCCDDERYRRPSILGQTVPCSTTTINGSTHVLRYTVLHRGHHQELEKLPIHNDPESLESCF
Description: COS-7 cells were grown in Dulbecco’s modified Eagle medium (DMEM) supplemented with 10% dialyzed fetal calf serum (dFCS) and antibiotics. Cells were transiently transfected by electroporation with plasmids encoding HA-tagged 5-HT4R (100 ng/10^6 cells), then seeded in 96-well plates (16,000 cells/well). […] After 10 min, cells were then lysed by the addition of the same volume of Triton-X100 (0.1%). Quantification of cAMP production was performed by HTRF® using the cAMP Dynamic kit (Cisbio Bioassays, Codolet, France) according to the manufacturer’s instructions.

AChE [5] = target: T2, AChE; assay: Kinetic study for AChE inhibition (Lineweaver-Burk plots); format: biochemical
Description: To try to clarify the mechanism of action of 19 and 20, reciprocal plots of 1/velocity vs. 1/[substrate] were constructed at different concentrations of the substrate acetylthiocholine iodide (0.01–1 mM) by using the spectrometric method by Ellman et al.. Four concentrations of 19 were selected for the studies: 10^−6, 10^−7, 10^−8 and 10^−9 M for the kinetic analysis of AChE inhibition. Four concentrations of 20 were selected for the studies: 10^−5, 10^−6, 10^−7 and 10^−8 M for the kinetic analysis of AChE inhibition. The plots were assessed by a weighted least squares analysis that assumed the variance of velocity (ν) to be a constant percentage of ν for the entire dataset. Slopes of these reciprocal plots were then plotted against the concentration of 19 and 20 in a weighted analysis.

human 5-HT4R [6] = target: T1, human 5-HT4R; assay: 5-HT4R radioligand displacement assay ([3H]-GR113808); format: binding; conditions: for 5-HT4R affinity: result in words
Description: All the synthesized phenolic derivatives and their carbamates were evaluated as potential inhibitors of human AChE, using the Ellman assay, as well as potential ligands for human 5-HT4R using a radioligand displacement assay. […].
For competition studies, 2.5 µg of proteins (5-HT4(b) membrane preparations, HTS110M, Eurofins. Eurofins’ 5-HT4(b) membrane preparations are crude membrane preparations made from their proprietary stable recombinant cell lines to ensure high-level of GPCR surface expression.) were incubated in duplicate at 25 °C for 60 min in the absence or the presence of 10^−6 or 10^−8M of each drug (9 was used as a reference standard) and 0.2 nM [^3H]-GR113808 (NET 1152, Perkin Elmer) in 25 mM Tris buffer (pH 7.4, 25 °C). At the end of the incubation, homogenates were filtered through Whatman GF/C filters (Alpha Biotech) pre-soaked with 0.5% polyethylenimine using a Brandel cell harvester. Filters were subsequently washed three times with 1 mL of ice-cold 25 mM Tris buffer (pH 7.4, 4 °C). Non-specific binding was evaluated in parallel in the presence of 30 µM serotonin. For some of these compounds, affinity constants were calculated from five-point inhibition curves using the GraphPad Prism 6 software and expressed as Ki ± SD.

[7] = (h)AChE IC50, Ellman assay, mean ± SEM of at least two experiments

C[C@H](N)Cc1ccccc1 [Amphetamine, (+)-α-Methylphenethylamine hemisulfate, reference compound]
Symptoms (Subtoxic Doses) (mice; 2 mg/kg, stimulant reference): Hyperactivity, exophtalmy, irritability

CCN(C)C(=O)Oc1cccc([C@H](C)N(C)C)c1 [Rivastigmine]
effect on scopolamine-induced memory performance deficit (rodents [1]): counterbalance scopolamine-induced memory performance deficit
effect on memory deficits induced by MK 801 (rodents [2]): ineffective in improving memory deficits induced by MK 801

COc1cc(N)c(Cl)cc1C(=O)NCC1CCN(Cc2cccc(O)c2)CC1 [Compound 6, 4-Amino-5-chloro-N-[[1-[(3-hydroxyphenyl)methyl]-4-piperidyl]methyl]-2-methoxybenzamide]
Ki (human 5-HT4R [3]): 5.8 ± 1.2 nM
inhibition at 1 µM (AChE [4]): 4%
AChE inhibitory activity (AChE [4]): devoid of any AChE inhibitory activities; also recorded: absent

COc1cc(N)c(Cl)cc1C(=O)CCC1CCN(Cc2cccc(O)c2)CC1.O=C(O)/C=C/C(=O)O [Compound 19, 1-(4-Amino-5-chloro-2-methoxyphenyl)-3-[1-[(3-hydroxyphenyl)methyl]-4-piperidyl]propan-1-one fumaric acid salt]
% Control Agonist Response ((h)5-HT4(a) receptors; 5-HT as control 5-HT4R agonist, mean ± SEM): 59.0 ± 3.9%
Profile ((h)5-HT4(a) receptors; (h)5-HT4(a) pharmacological profile): partial 5-HT4R agonist
EC50 ((h)5-HT4(a) receptors; given as Log(EC50), negative values, mean ± SEM): 0.126 nM
mechanism of AChE inhibition (AChE [5]): non-competitive AChE inhibitor; also recorded: non-competitive-type
Ki (human 5-HT4R [3]): 6.9 ± 1.2 nM
IC50 (AChE [4]; [7]): 72 ± 1.4 nM

COc1cc(N)c(Cl)cc1C(=O)CCC1CCN(Cc2cccc(O)c2)CC1 [Compound 4, 1-(4-Amino-5-chloro-2-methoxyphenyl)-3-[1-[(3-hydroxyphenyl)methyl]-4-piperidyl]propan-1-one]
Ki (human 5-HT4R [3]): 5.1 ± 1.1 nM
IC50 (AChE [4]; [7]): 148 nM and 149 nM

CN(C)CCCN1c2ccccc2Sc2ccc(Cl)cc21 [Chlorpromazine, chlorpromazine hydrochloride, reference compound]
Symptoms (Subtoxic Doses) (mice; 10 mg/kg, depressive reference): Hypoactivity, ataxia, sleep

CCN(C)C(=O)Oc1cccc(CN2CCC(COC(=O)c3cc(Cl)c(N)cc3OC)CC2)c1 [Compound 8, [1-[[3-[Ethyl(methyl)carbamoyl]oxyphenyl]methyl]-4-piperidyl]methyl 4-amino-5-chloro-2-methoxybenzoate]
inhibition at 0.01 µM (human 5-HT4R [6]; 10^−8 M): 23%
5-HT4R affinity (human 5-HT4R [6]): devoid of any activity towards 5-HT4R
IC50 (AChE [4]; [7]): 16300 nM

CCN(C)C(=O)Oc1cccc(CN2CCC(CNC(=O)c3cc(Cl)c(N)cc3OC)CC2)c1 [Compound 9, [3-[[4-[[(4-Amino-5-chloro-2-methoxybenzoyl)amino]methyl]-1-piperidyl]methyl]phenyl] N-ethyl-N-methyl-carbamate]
inhibition at 0.01 µM (human 5-HT4R [6]; 10^−8 M): 13%
5-HT4R affinity (human 5-HT4R [6]): devoid of any activity towards 5-HT4R
IC50 (AChE [4]; [7]): 10100 nM

COc1cc(N)c(Cl)cc1C(=O)OCC1CCN(Cc2cccc(O)c2)CC1 [Compound 5, [1-[(3-Hydroxyphenyl)methyl]-4-piperidyl]methyl 4-amino-5-chloro-2-methoxybenzoate]
Ki (human 5-HT4R [3]): 0.6 ± 0.4 nM
inhibition at 1 µM (AChE [4]): 11%
AChE inhibitory activity (AChE [4]): devoid of any AChE inhibitory activities; also recorded: absent

CCN(C)C(=O)Oc1cccc(CN2CCC(CCC(=O)c3cc(Cl)c(N)cc3OC)CC2)c1 [Compound 7, [3-[[4-[3-(4-Amino-5-chloro-2-methoxyphenyl)-3-oxopropyl]-1-piperidyl]methyl]phenyl] N-ethyl-N-methyl-carbamate]
(h)5-HT4R % Inhibition at 10^−8 M (human 5-HT4R [6]; 10^−8 M): 3%
5-HT4R affinity (human 5-HT4R [6]): devoid of any activity towards 5-HT4R
IC50 (AChE [4]; [7]): 4150 ± 794 nM
IC50 (AChE [4]; AChE IC50, value in text): 4150 nM
